Measured values taken from the NIST ThermoML archive (doi:10.1021/je5010214).
± gives the expanded uncertainty stated by the source.

Conditions: Liquid, Vibrating tube method

CC(C)CO [2-methyl-1-propanol]
Conditions	mass density [kg/m3]
323.15 K, 32903 kPa	805.081 ± 0.86
323.15 K, 33102 kPa	805.154 ± 0.87
323.15 K, 33950 kPa	805.707 ± 0.87
323.15 K, 34958 kPa	806.425 ± 0.87
323.15 K, 37883 kPa	808.369 ± 0.88
323.15 K, 39891 kPa	809.68 ± 0.88
323.15 K, 42065 kPa	811.076 ± 0.89
323.15 K, 44846 kPa	812.852 ± 0.89
323.15 K, 49935 kPa	815.968 ± 0.91
323.15 K, 52064 kPa	817.249 ± 0.91
323.15 K, 54897 kPa	818.944 ± 0.92
323.15 K, 57818 kPa	820.634 ± 0.93
323.15 K, 59855 kPa	821.787 ± 0.93
323.15 K, 61856 kPa	822.928 ± 0.94
323.15 K, 64838 kPa	824.6 ± 0.94
323.15 K, 65957 kPa	825.209 ± 0.94
323.16 K, 1117.8 kPa	779.897 ± 0.81
323.16 K, 47886 kPa	814.721 ± 0.9
328.15 K, 96.5 kPa	774.907 ± 0.81
328.15 K, 395.8 kPa	775.157 ± 0.81
328.15 K, 904.1 kPa	775.603 ± 0.81
328.15 K, 1030.6 kPa	775.74 ± 0.81
328.15 K, 2999.3 kPa	777.646 ± 0.81
328.15 K, 5042 kPa	779.515 ± 0.81
328.15 K, 10121 kPa	784.077 ± 0.82
328.15 K, 11905 kPa	785.621 ± 0.82
328.15 K, 24953 kPa	795.929 ± 0.85
328.15 K, 27874 kPa	798.098 ± 0.86
328.15 K, 29949 kPa	799.588 ± 0.86
328.15 K, 31948 kPa	800.996 ± 0.86
328.15 K, 33061 kPa	801.681 ± 0.87
328.15 K, 34111 kPa	802.415 ± 0.87
328.15 K, 34984 kPa	803.007 ± 0.87
328.15 K, 37913 kPa	805.001 ± 0.88
328.15 K, 41958 kPa	807.674 ± 0.89
328.15 K, 44806 kPa	809.5 ± 0.9
328.15 K, 55150 kPa	815.995 ± 0.92
328.15 K, 58100 kPa	817.75 ± 0.93
328.15 K, 60045 kPa	818.881 ± 0.93
328.15 K, 62082 kPa	820.048 ± 0.94
328.15 K, 66095 kPa	822.334 ± 0.95
328.16 K, 515 kPa	775.262 ± 0.81
328.16 K, 2069.7 kPa	776.794 ± 0.81
328.16 K, 6936.7 kPa	781.257 ± 0.82
328.16 K, 8874.2 kPa	782.985 ± 0.82
328.16 K, 14954 kPa	788.149 ± 0.83
328.16 K, 17891 kPa	790.513 ± 0.83
328.16 K, 20040 kPa	792.21 ± 0.84
328.16 K, 22054 kPa	793.773 ± 0.84
328.16 K, 33018 kPa	801.745 ± 0.87
328.16 K, 39966 kPa	806.346 ± 0.88
328.16 K, 47820 kPa	811.414 ± 0.9
328.16 K, 49817 kPa	812.637 ± 0.91
328.16 K, 52099 kPa	814.145 ± 0.91
328.16 K, 64955 kPa	821.692 ± 0.95
333.15 K, 95.7 kPa	770.629 ± 0.81
333.15 K, 913.6 kPa	771.467 ± 0.81
333.15 K, 6965.6 kPa	777.259 ± 0.82
333.15 K, 8937.3 kPa	779.076 ± 0.82
333.15 K, 9995.1 kPa	780.005 ± 0.82
333.15 K, 11970 kPa	781.72 ± 0.82
333.15 K, 14915 kPa	784.255 ± 0.83
333.15 K, 22033 kPa	790.027 ± 0.84
333.15 K, 29996 kPa	796.045 ± 0.86
333.15 K, 31986 kPa	797.49 ± 0.87
333.15 K, 32928 kPa	798.124 ± 0.87
333.15 K, 41792 kPa	804.162 ± 0.89
333.15 K, 47830 kPa	808.087 ± 0.91
333.15 K, 49895 kPa	809.38 ± 0.91
333.15 K, 51876 kPa	810.61 ± 0.92
333.15 K, 54830 kPa	812.44 ± 0.92
333.15 K, 58116 kPa	814.429 ± 0.93
333.15 K, 59975 kPa	815.509 ± 0.94
333.15 K, 61974 kPa	816.676 ± 0.94
333.15 K, 65057 kPa	818.467 ± 0.95
333.15 K, 66042 kPa	819.039 ± 0.95
333.16 K, 295.9 kPa	770.818 ± 0.81
333.16 K, 574.5 kPa	771.11 ± 0.81
333.16 K, 1069.5 kPa	771.621 ± 0.81
333.16 K, 2110.6 kPa	772.649 ± 0.81
333.16 K, 3100 kPa	773.622 ± 0.81
333.16 K, 5034 kPa	775.464 ± 0.81
333.16 K, 17954 kPa	786.777 ± 0.84
333.16 K, 19985 kPa	788.397 ± 0.84
333.16 K, 24923 kPa	792.261 ± 0.85
333.16 K, 27922 kPa	794.514 ± 0.86
333.16 K, 33031 kPa	798.137 ± 0.87
333.16 K, 34001 kPa	798.837 ± 0.87
333.16 K, 35030 kPa	799.567 ± 0.87
333.16 K, 37925 kPa	801.558 ± 0.88
333.16 K, 39862 kPa	802.861 ± 0.89
333.16 K, 44782 kPa	806.126 ± 0.9
338.15 K, 72.5 kPa	765.803 ± 0.81
338.15 K, 267.1 kPa	766.009 ± 0.81
338.15 K, 496.5 kPa	766.255 ± 0.81
338.15 K, 821.3 kPa	766.6 ± 0.81
338.15 K, 1007.7 kPa	766.796 ± 0.81
338.15 K, 2012.4 kPa	767.824 ± 0.81
338.15 K, 3039.1 kPa	768.845 ± 0.81
338.15 K, 7018.5 kPa	772.739 ± 0.82
338.15 K, 8987.6 kPa	774.596 ± 0.82
338.15 K, 10054 kPa	775.578 ± 0.82
338.15 K, 18105 kPa	782.627 ± 0.84
338.15 K, 22120 kPa	785.947 ± 0.85
338.15 K, 28029 kPa	790.565 ± 0.86
338.15 K, 32010 kPa	793.527 ± 0.87
338.15 K, 32776 kPa	794.103 ± 0.87
338.15 K, 32995 kPa	794.184 ± 0.87
338.15 K, 33922 kPa	794.869 ± 0.87
338.15 K, 38056 kPa	797.798 ± 0.88
338.15 K, 42127 kPa	800.629 ± 0.9
338.15 K, 48090 kPa	804.572 ± 0.91
338.15 K, 50121 kPa	805.906 ± 0.92
338.15 K, 52094 kPa	807.168 ± 0.92
338.15 K, 55116 kPa	809.055 ± 0.93
338.15 K, 58010 kPa	810.837 ± 0.94
338.15 K, 60191 kPa	812.149 ± 0.94
338.15 K, 62244 kPa	813.373 ± 0.95
338.15 K, 65243 kPa	815.143 ± 0.96
338.15 K, 65986 kPa	815.583 ± 0.96
338.15 K, 66355 kPa	815.805 ± 0.96
338.16 K, 5091.1 kPa	770.879 ± 0.81
338.16 K, 12131 kPa	777.462 ± 0.83
338.16 K, 15171 kPa	780.113 ± 0.83
338.16 K, 20167 kPa	784.349 ± 0.84
338.16 K, 25290 kPa	788.465 ± 0.85
338.16 K, 30041 kPa	792.069 ± 0.86
338.16 K, 35102 kPa	795.7 ± 0.88
338.16 K, 39987 kPa	799.156 ± 0.89
338.16 K, 45109 kPa	802.623 ± 0.9
343.15 K, 55.6 kPa	761.239 ± 0.81
343.15 K, 101.8 kPa	761.279 ± 0.81
343.15 K, 277.3 kPa	761.484 ± 0.81
343.15 K, 487.7 kPa	761.699 ± 0.81
343.15 K, 881.6 kPa	762.13 ± 0.81
343.15 K, 1037 kPa	762.294 ± 0.81
343.15 K, 1941.4 kPa	763.263 ± 0.81
343.15 K, 3000.3 kPa	764.362 ± 0.81
343.15 K, 4957 kPa	766.378 ± 0.81
343.15 K, 6956.1 kPa	768.377 ± 0.82
343.15 K, 8969.5 kPa	770.304 ± 0.82
343.15 K, 10003 kPa	771.264 ± 0.82
343.15 K, 11997 kPa	773.149 ± 0.83
343.15 K, 14895 kPa	775.758 ± 0.83
343.15 K, 17840 kPa	778.358 ± 0.84
343.15 K, 20135 kPa	780.417 ± 0.84
343.15 K, 21925 kPa	781.908 ± 0.85
343.15 K, 24920 kPa	784.349 ± 0.85
343.15 K, 27949 kPa	786.755 ± 0.86
343.15 K, 29863 kPa	788.238 ± 0.87
343.15 K, 31874 kPa	789.777 ± 0.87
343.15 K, 32927 kPa	790.544 ± 0.87
343.15 K, 32981 kPa	790.602 ± 0.87
343.15 K, 34026 kPa	791.305 ± 0.88
343.15 K, 35028 kPa	792.011 ± 0.88
343.15 K, 38080 kPa	794.257 ± 0.89
343.15 K, 39908 kPa	795.53 ± 0.89
343.15 K, 41973 kPa	796.98 ± 0.9
343.15 K, 44972 kPa	799.034 ± 0.91
343.15 K, 47997 kPa	801.072 ± 0.91
